The structures appear in SMILES notation. Like-named read-outs stand apart in the source and are kept apart here.

The nature of the data set: Part 6 IH: plasma pharmacokinetics, single doses. As to conditions: for Cmax / AUC(0-t) / Tmax: human, oral, plasma; for Cmax / AUC(0-t): geometric mean; for AUC(0-t): read-out: AUC0-24. In kind it is in vivo, human. How it is done: Treatments were administered under fasted state. Dose levels were as follows:
Subjects were randomized to 1 of 4 sequences.
Blood samples (up to 5 mL per sample) were collected for PK analysis of Compound A and its metabolite(s). The actual time of sample collection was recorded. The PK samples of the subjects randomized to placebo treatment were not analyzed. Any remaining plasma PK samples were used to explore the presence of any additional metabolites and/or biomarkers.
Plasma and urine concentrations of Compound A and its metabolite(s) were measured using a validated high-performance liquid chromatography with tandem mass spectrometry.
The PK population was used for summaries of plasma Compound A and its metabolite(s) concentrations and for analyses, summaries, and listing of PK parameters. Dose proportionality for Cmax, AUC0-t, and AUC0-∞ was evaluated using a linear model of logarithmically transformed values to assess the slope parameter, and the 95% CI for the slope was estimated. Where a 95% CI of the slope includes 1, it was considered as evidence of dose proportionality for that PK parameter.

Take `CS(=O)(=O)N[C@H]1CCCN2C(=O)COc3ccccc3C3CCC(CC3)OCC12` (stereo partly drawn) [Compound A, N-[(4S,4aR,7α,10α)-1,2,3,4,4a,5,7,8,9,10,16,17-dodecahydro-17-oxo-7,10-ethanopyrido[1,2-d][1,7,4]benzodioxaazacyclotridecin-4-yl]methanesulfonamide]: the “fold change in AUC and Cmax for 5-fold change in dose” value (IH patients, 5 to 25 mg) is “approximately 3 fold”. Besides, the Cmax is 11.8 ng/mL (5 mg, IH, n = 7); 18.1 ng/mL (12 mg, IH, n = 7); 32.2 ng/mL (25 mg, IH, N = 8). For the same compound, the AUC(0-t) is, setting by setting: (5 mg, IH, n = 7) 78.9 ng·h/mL; (12 mg, IH, n = 7) 156 ng·h/mL; (25 mg, IH, N = 8) 230 ng·h/mL. The Tmax (5 mg, IH, median, n = 7, read-out: Tmax) worked out at 1.5 h; the Tmax (12 mg, IH, median, n = 7, read-out: Tmax) amounted to 3 h; the Tmax (25 mg, IH patients, 5, 12, 25 mg, read-out: median tmax, range across doses) lay in the range of 1.5 to 3 h; the Tmax (25 mg, IH, median, N = 8, read-out: Tmax) is 1.5 h.

These data come from patent publication US20250186405A1, “Compound For Use In Treating Narcolepsy” (Alkermes, Inc., priority 2023, published 2025).
